# Several values for one entry are separate records, joined by “and”; a condition that tells them apart may be missing. Equal values may be shown once.
# Legend:
# [1] = system: thermal C-fiber pain pathway; assay: Hotplate test after intrathecal injection of isoflurane dissolved in saline (Study C); format: in vivo, rat; settings: 5 microliter isoflurane dissolved in saline
# Procedure: Isoflurane was dissolved into saline using the following method (also referred to as the “bubbling” method). Study C: A mock vaporizing device was created using a 500 ml modified Erlenmeyer flask (2 inlets and 1 catheter into the liquid phase). The flask was partially filled with 0.9% normal saline and a stoppered glass pipette was inserted into the bottom of the liquid phase for injection of isoflurane. A second egress pipette allowed egress of gas from the closed container. 2% isoflurane solution in oxygen at 2 L/min was injected through the pipette, saturating the 0.9% saline solution after approximately 10 minutes of injection. 5 mL was drawn from the saturated saline solution and administered to […] using the procedures outlined in Example I above. For study C, all animals were prepared as for experiments A and B. The inventors injected 4 animals with 5 microliter of dissolved isoflurane solution (as prepared in 0030) via intrathecal catheter. Note, control (baseline) latency to paw withdrawal is different in Study C due to a different intensity of heat lamp used. Each animal serves as its own control in study C. Study C Data is presented here: in seconds to paw withdrawal to heat source. Table and graphic format.
# [2] = system: thermal C-fiber pain pathway; assay: Hotplate test after intrathecal isoflurane dissolved in artificial cerebrospinal fluid (ACSF); format: in vivo, rat
# Procedure: Pain sensitivity was measured after intrathecal administration of isoflurane in artificial cerebrospinal fluid (ACSF). Further, as detailed below, the isoflurane was first dissolved in ACSF and then sonicated before administration. The dose response relationship was then evaluated by generating a stimulus-response (SR) graph in order to determine relevant concentrations of isoflurane that may be administered intrathecally to achieve analgesia or anesthesia. The characterization of the pharmacological profile of intrathecal administration of isoflurane in ACSF was performed in this example using rats; further, as would be appreciated by one of skill in the art, analogous approaches may be used to determine the precise pharmacological profile in humans. Isoflurane dissolved in ACSF was prepared by the following method. […] The dose response relationship was then evaluated by generating a stimulus-response (SR) graph in order to standardize responses across animals and determine relevant concentrations of isoflurane that may be administered intrathecally to achieve analgesia or anesthesia. […] MPE is calculated as ((drug response time—baseline response time)/(cutoff time−baseline response time))*100. […]
# [3] = system: thermal C-fiber pain pathway; assay: Hotplate test (thermal withdrawal latency) after direct intrathecal injection of volatile anesthetic; settings: smallest intrathecally delivered dose of 2 microliters
# [4] = Observation of adverse effects and recovery after intrathecal injection; format: in vivo, rat; settings: intrathecal injection of 2 microliters, rats
# Procedure: These rats were then allowed time to recover from their intrathecal injection. There were no apparent adverse effects such as respiratory depression, cardiac, or neurological compromise. At 30 minutes after the injection, the rats were tested again, according to grouping:
# This study also shed some light into the safety of intrathecally delivering active agent gases.
Compound,"seconds to paw withdrawal to heat source, 5 MIN, mean ([1]; 5 min, mean of all readings (control mean 3.875))","seconds to paw withdrawal to heat source, 5 MIN ([1]; 5 min, single readings per rat)","seconds to paw withdrawal to heat source, 10 MIN, mean ([1]; 10 min, mean of all readings)","seconds to paw withdrawal to heat source, 10 MIN ([1]; 10 min, single readings per rat)","seconds to paw withdrawal to heat source, 15 MIN, mean ([1]; 15 min, mean of all readings)","seconds to paw withdrawal to heat source, 15 MIN ([1]; 15 min, single readings per rat)","seconds to paw withdrawal to heat source, 30 MIN, mean ([1]; 30 min, mean of all readings)","seconds to paw withdrawal to heat source, 30 MIN ([1]; 30 min, single readings per rat)","seconds to paw withdrawal to heat source, 60 MIN, mean ([1]; 60 min, mean of all readings)","seconds to paw withdrawal to heat source, 60 MIN ([1]; 60 min, single readings per rat)","maximal possible effect (MPE) ([2]; 10% v/v isoflurane in ACSF, 10 μl intrathecal (1.46 mg), 10 minutes after injection, cutoff 20 seconds)","analgesia (hind paw withdrawal threshold to radiant heat) ([2]; isoflurane in ACSF 10% v/v, 10 μL intrathecal, 1.46 mg dose)",analgesic effect (thermal latency time) [3],adverse effects [4]
"FC(F)OC(Cl)C(F)(F)F (stereo not shown) [isoflurane, 1-chloro-2,2,2-trifluoroethyl difluoromethyl ether]",14.82 s,14.2 seconds and 20 seconds (3×) and 16 seconds and 9.8 seconds and 11.8 seconds (2×) and 9.1 seconds and 11 seconds and 15 seconds and 19.5 seconds and 10.9 seconds and 12.6 seconds and 18.1 seconds and 17.3 seconds,9.181 s,12.2 seconds and 12 seconds (2×) and 9.1 seconds and 8.9 seconds and 8.8 seconds and 7.8 seconds and 10.2 seconds and 8.1 seconds and 5.4 seconds and 9 seconds (3×) and 6.8 seconds and 9.9 seconds and 8.7 seconds,7.375 s,6.1 s and 7.1 s and 4.8 s and 5.2 s and 7.9 s and 6.4 s and 6.9 s and 4.3 s and 7.6 s and 7.3 s and 8.8 s and 7 s and 10.4 s and 9.4 s and 5.4 s and 13.4 s,5.9375 s,5.2 seconds (2×) and 6.1 seconds and 5.8 seconds and 6.5 seconds and 4.9 seconds (2×) and 4.3 seconds and 4.7 seconds and 3.8 seconds and 6.8 seconds and 7.2 seconds and 8.2 seconds and 6.9 seconds and 8.1 seconds and 6.4 seconds,4.456 s,4.2 seconds (2×) and 3.5 seconds (3×) and 3.3 seconds and 3.8 seconds (3×) and 6.1 seconds and 5.8 seconds and 5.1 seconds and 4.9 seconds and 4.7 seconds and 7 seconds and 4.1 seconds,~34%,resulted in analgesia,analgesic effect,None of the rats in the study experienced adverse effects
FCOC(C(F)(F)F)C(F)(F)F [sevoflurane],,,,,,,,,,,,,analgesic effect,None of the rats in the study experienced adverse effects

# Reference: patent publication US10357464B2, “Methods for delivering volatile anesthetics for regional anesthesia and/or pain relief” (The Board of Regents of the University of Texas System, priority 2006, dated 2019)
